Test results as given in patent US20120214862A1, “MODULATION OF FACTOR 7 EXPRESSION” (ISIS Pharmaceuticals, Inc., priority 2009, published 2012).
In the oligonucleotide strings, read from the 5' end, every base follows the letter of its sugar. An asterisk marks phosphorothioate; unmarked linkages are phosphodiester. Other units and linkages are bracketed, terminal groups are in braces. A string of capitals states the bases alone. e = 2'-O-(2-methoxyethyl) (MOE); [5mC] = 5-methylcytosine; d = 2'-deoxy (DNA)

System: human Factor 7 mRNA
Experiment: Antisense inhibition of human Factor 7 mRNA in HepB3 cells, lipofectin, 50 nM, real-time RT-PCR
Format: cell-based
Conditions: for % Inhibition (human Factor 7 mRNA): 50 nM, ~24 h
Method in brief: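 Percent inhibition of Factor 7 mRNA, relative to untreated control, comes from real-time RT-PCR with RIBOGREEN normalization, using primer probe set RTS 2927 in some runs. RNA was taken roughly 24 h after lipofectin delivery of 50 nM oligonucleotide into HepB3 cells.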

[1] = HepB3 cells, lipofectin, 50 nM antisense oligonucleotide, approximately 24 hours, primer probe set RTS 2927, relative to untreated control
[2] = Example 1, HepB3 cells, lipofectin, relative to untreated control cells
[3] = HepB3 cells, gapmers targeted to nucleobases 11830 to 11869 of SEQ ID NO: 1 (Table 9)
[4] = Example 4, HepB3 cells, lipofectin, relative to untreated control
[5] = HepB3 cells, gapmers targeted to nucleobases 13760 to 13789 of SEQ ID NO: 1 (Table 10)
[6] = Example 6 microwalk, nucleobases 15098 to 15122 of SEQ ID NO: 1, HepB3, lipofectin

416557 (antisense eT*e[5mC]*e[5mC]*e[5mC]*eA*dG*dG*d[5mC]*dA*dA*dA*dG*d[5mC]*dT*dG*e[5mC]*eT*e[5mC]*eA*eG) [compound 416557]
% Inhibition of human Factor 7 mRNA levels [1]: 56%

407644 (antisense eG*eA*eG*eG*eA*d[5mC]*dA*dG*d[5mC]*dA*d[5mC]*dA*d[5mC]*dA*dT*eG*eG*eA*eG*eT) [compound 407644]
% Inhibition (human Factor 7 mRNA) [2]: 66%

416532 (antisense eG*eG*eA*e[5mC]*e[5mC]*d[5mC]*dA*dG*dA*dT*dG*dA*d[5mC]*d[5mC]*dA*eG*e[5mC]*eA*eG*eG) [compound 416532]
% Inhibition of human Factor 7 mRNA levels [1]: 12%

422279 (antisense eA*eG*d[5mC]*d[5mC]*dT*dG*dA*dG*dG*d[5mC]*d[5mC]*dA*dG*d[5mC]*dA*eG*eA*eT*e[5mC]*eA) [compound 422279]
% Inhibition of human Factor 7 mRNA levels (HepB3 cells, gapmers targeted to nucleobases 14707 to 14732 of SEQ ID NO: 1 (Table 11)): 56%

407597 (antisense eT*eG*eT*eT*eG*dA*d[5mC]*dA*dT*dT*d[5mC]*d[5mC]*d[5mC]*d[5mC]*dA*eT*eG*eG*eG*eA) [compound 407597]
% Inhibition (human Factor 7 mRNA) [2]: 39%

416461 (antisense eG*eA*eA*eG*e[5mC]*dG*d[5mC]*dA*d[5mC]*dG*dA*dA*dG*dG*d[5mC]*e[5mC]*eA*eG*e[5mC]*eG) [compound 416461]
% Inhibition of human Factor 7 mRNA levels [1]: 43%

416568 (antisense e[5mC]*eA*eT*eT*eG*dT*dG*d[5mC]*d[5mC]*dT*dG*dG*d[5mC]*dA*d[5mC]*eA*e[5mC]*eA*eG*eG) [compound 416568]
% Inhibition of human Factor 7 mRNA levels [1]: 14%

407945 (antisense eA*eA*eT*e[5mC]*eA*dT*dG*dG*dG*d[5mC]*dA*dA*d[5mC]*d[5mC]*d[5mC]*eA*eG*eT*eG*eG) [compound 407945]
% Inhibition (human Factor 7 mRNA) [2]: 56%

407596 (antisense eG*eA*eG*eG*e[5mC]*d[5mC]*d[5mC]*d[5mC]*dG*dG*d[5mC]*dT*dT*d[5mC]*d[5mC]*eA*e[5mC]*eG*eG*e[5mC]) [compound 407596]
% Inhibition (human Factor 7 mRNA) [2]: 61%

422104 (antisense eG*eG*e[5mC]*eT*eG*dA*dG*dG*dA*dG*dA*d[5mC]*dA*dA*dT*eG*eG*eT*e[5mC]*eA) [compound 422104]
% Inhibition of human Factor 7 mRNA levels [3]: 59%

422240 (antisense eA*eG*dA*d[5mC]*dA*dA*dT*dG*dG*dT*d[5mC]*dA*dG*dG*dG*e[5mC]*eT*eG*eG*eT) [compound 422240]
% Inhibition of human Factor 7 mRNA levels [3]: 66%

416466 (antisense eT*eG*eT*eG*eG*dG*d[5mC]*d[5mC]*dT*d[5mC]*d[5mC]*dA*d[5mC]*dT*dG*eT*e[5mC]*e[5mC]*e[5mC]*e[5mC]) [compound 416466]
% Inhibition of human Factor 7 mRNA levels [1]: 57%

422197 (antisense eT*eT*eA*d[5mC]*dT*dG*dA*dG*d[5mC]*dG*d[5mC]*dG*dG*dA*dA*dG*dA*eA*eG*eG) [compound 422197]
% Inhibition (human Factor 7 mRNA) [4]: 26%

407605 (antisense eT*eT*eG*eA*eG*dG*d[5mC]*dA*d[5mC]*dA*d[5mC]*dT*dG*dG*dT*e[5mC]*e[5mC]*e[5mC]*e[5mC]*eA) [compound 407605]
% Inhibition (human Factor 7 mRNA) [2]: 58%

422299 (antisense eA*eG*d[5mC]*d[5mC]*d[5mC]*dG*dA*dG*dT*dT*d[5mC]*dT*dG*d[5mC]*dA*eG*eG*eA*eG*e[5mC]) [compound 422299]
% Inhibition of human Factor 7 mRNA levels (HepB3 cells, gapmers (5-10-5, 3-14-3, 2-13-5 MOE) targeted to nucleobases 4868 to 4899 of SEQ ID NO: 1): 64%

407621 (antisense eA*e[5mC]*eA*eA*e[5mC]*dA*dG*dG*dA*d[5mC]*d[5mC]*dT*dG*d[5mC]*d[5mC]*eA*eT*eG*eG*eA) [compound 407621]
% Inhibition (human Factor 7 mRNA) [2]: 62%

422169 (antisense e[5mC]*eT*eG*dA*dG*dG*dA*dG*dA*d[5mC]*dA*dA*dT*dG*dG*dT*d[5mC]*eA*eG*eG) [compound 422169]
% Inhibition of human Factor 7 mRNA levels [3]: 56%

422175 (antisense e[5mC]*eG*e[5mC]*d[5mC]*dG*dG*d[5mC]*dT*d[5mC]*dT*dG*d[5mC]*dT*d[5mC]*dA*dT*d[5mC]*e[5mC]*e[5mC]*e[5mC]) [compound 422175]
% Inhibition of human Factor 7 mRNA levels [5]: 69%

422263 (antisense eG*eG*dA*dA*dG*dA*dA*dG*dG*dG*dA*d[5mC]*dG*dG*dA*eA*eG*eG*eT*eG) [compound 422263]
% Inhibition (human Factor 7 mRNA) [4]: 19%

416533 (antisense eG*e[5mC]*eA*eT*eT*d[5mC]*dT*dG*dG*dA*d[5mC]*d[5mC]*d[5mC]*dA*dG*eA*eT*eG*eA*e[5mC]) [compound 416533]
% Inhibition of human Factor 7 mRNA levels [1]: 41%

422166 (antisense eA*eG*eG*dA*dG*dA*d[5mC]*dA*dA*dT*dG*dG*dT*d[5mC]*dA*dG*dG*eG*e[5mC]*eT) [compound 422166]
% Inhibition of human Factor 7 mRNA levels [3]: 63%

416454 (antisense e[5mC]*eG*eT*eG*e[5mC]*dT*d[5mC]*dG*d[5mC]*d[5mC]*d[5mC]*dA*dG*d[5mC]*dA*e[5mC]*e[5mC]*eG*e[5mC]*eG) [compound 416454]
% Inhibition of human Factor 7 mRNA levels [1]: 56%

422123 (antisense eG*eA*eG*e[5mC]*eG*d[5mC]*dG*dG*dA*dA*dG*dA*dA*dG*dG*eG*eA*e[5mC]*eG*eG) [compound 422123]
% Inhibition (human Factor 7 mRNA) [4]: 16%

407921 (antisense e[5mC]*e[5mC]*eA*e[5mC]*eA*dG*dG*d[5mC]*d[5mC]*dA*dG*dG*dG*d[5mC]*dT*eG*e[5mC]*eT*eG*eG) [compound 407921]
% Inhibition (human Factor 7 mRNA) [2]: 65%

422137 (antisense eA*e[5mC]*eA*eG*e[5mC]*dA*d[5mC]*dA*d[5mC]*dA*dT*dG*dG*dA*dG*eT*e[5mC]*eA*eG*e[5mC]) [compound 422137]
% Inhibition (human Factor 7 mRNA) [6]: 45%

407636 (antisense eG*e[5mC]*eA*eG*e[5mC]*d[5mC]*d[5mC]*dT*dG*dG*d[5mC]*d[5mC]*d[5mC]*d[5mC]*dA*eG*e[5mC]*eT*eG*eA) [compound 407636]
% Inhibition (human Factor 7 mRNA) [2]: 75%

416541 (antisense e[5mC]*e[5mC]*eA*e[5mC]*e[5mC]*d[5mC]*dT*dT*dG*dG*dT*dG*d[5mC]*d[5mC]*d[5mC]*eA*eG*eA*eT*e[5mC]) [compound 416541]
% Inhibition of human Factor 7 mRNA levels [1]: 53%

416445 (antisense eT*eA*e[5mC]*eT*eG*d[5mC]*dT*d[5mC]*dA*d[5mC]*dA*dG*d[5mC]*d[5mC]*dG*e[5mC]*e[5mC]*eG*eT*eT) [compound 416445]
% Inhibition of human Factor 7 mRNA levels [1]: 57%

422289 (antisense eG*eA*d[5mC]*dA*dG*d[5mC]*dA*d[5mC]*dA*d[5mC]*dA*dT*dG*dG*dA*eG*eT*e[5mC]*eA*eG) [compound 422289]
% Inhibition (human Factor 7 mRNA) [6]: 34%

422154 (antisense eT*e[5mC]*eA*dG*dG*dG*d[5mC]*dT*dG*dG*dT*dT*dT*dT*dG*dG*dA*eG*eG*eA) [compound 422154]
% Inhibition of human Factor 7 mRNA levels [3]: 31%

416503 (antisense eT*eA*eG*e[5mC]*e[5mC]*dA*d[5mC]*d[5mC]*d[5mC]*d[5mC]*dG*d[5mC]*dG*dG*dG*e[5mC]*eT*eG*eG*e[5mC]) [compound 416503]
% Inhibition of human Factor 7 mRNA levels [1]: 0%

422116 (antisense eT*eG*e[5mC]*eG*e[5mC]*d[5mC]*dA*d[5mC]*d[5mC]*d[5mC]*dG*d[5mC]*d[5mC]*dG*dG*e[5mC]*eT*e[5mC]*eT*eG) [compound 422116]
% Inhibition of human Factor 7 mRNA levels [5]: 52%

422234 (antisense eT*eG*dG*dT*d[5mC]*dA*dG*dG*dG*d[5mC]*dT*dG*dG*dT*dT*eT*eT*eG*eG*eA) [compound 422234]
% Inhibition of human Factor 7 mRNA levels [3]: 62%

416550 (antisense eT*eG*eG*e[5mC]*eT*dG*dG*d[5mC]*dT*dG*dA*dG*dG*dA*dG*eA*e[5mC]*eA*eA*eT) [compound 416550]
% Inhibition of human Factor 7 mRNA levels [1]: 55%

416501 (antisense e[5mC]*eT*eG*e[5mC]*e[5mC]*d[5mC]*dT*dT*d[5mC]*d[5mC]*dA*d[5mC]*d[5mC]*dA*dA*eG*eT*eT*eT*eA) [compound 416501]
% Inhibition of human Factor 7 mRNA levels [1]: 18%

416482 (antisense e[5mC]*eA*eT*eG*eG*dT*dG*dA*dT*dG*d[5mC]*dT*dT*d[5mC]*dT*eG*eA*eA*eT*eT) [compound 416482]
% Inhibition of human Factor 7 mRNA levels [1]: 64%
% Inhibition of human Factor 7 mRNA levels (HepB3 cells, gapmers targeted to nucleobases 15188 to 15211 of SEQ ID NO: 1 (Table 13)): 64%

416569 (antisense eG*e[5mC]*e[5mC]*eT*eG*dG*dT*dG*dT*dG*d[5mC]*dA*d[5mC]*dA*d[5mC]*eA*eT*eT*eG*eT) [compound 416569]
% Inhibition of human Factor 7 mRNA levels [1]: 12%

407895 (antisense e[5mC]*eA*e[5mC]*eA*e[5mC]*dA*dG*dA*dT*d[5mC]*dA*dG*d[5mC]*dT*dG*eG*eT*e[5mC]*eA*eT) [compound 407895]
% Inhibition (human Factor 7 mRNA) [2]: 72%

407599 (antisense e[5mC]*e[5mC]*eT*eG*eG*dG*dA*dG*dA*d[5mC]*d[5mC]*dA*dT*dG*dA*eT*eG*eA*eA*eA) [compound 407599]
% Inhibition (human Factor 7 mRNA) [2]: 73%

407625 (antisense eT*eT*eG*eT*e[5mC]*dG*dA*dA*dA*d[5mC]*dA*dG*dT*dG*dG*eG*e[5mC]*e[5mC]*eG*e[5mC]) [compound 407625]
% Inhibition (human Factor 7 mRNA) [2]: 100%

422165 (antisense eG*eG*eA*dG*dA*d[5mC]*dA*dA*dT*dG*dG*dT*d[5mC]*dA*dG*dG*dG*e[5mC]*eT*eG) [compound 422165]
% Inhibition of human Factor 7 mRNA levels [3]: 57%

416521 (antisense e[5mC]*eA*e[5mC]*e[5mC]*e[5mC]*d[5mC]*dA*d[5mC]*d[5mC]*dA*dG*dG*dT*dT*dG*eT*eG*e[5mC]*eA*e[5mC]) [compound 416521]
% Inhibition of human Factor 7 mRNA levels [1]: 36%
